# Like-named read-outs stand apart in the source and are kept apart here.
# Tests used:
# [1] = Atogepant-itraconazole drug interaction study: atogepant plasma PK; format: in vivo, human; conditions: for Tmax / AUC(0-inf) / AUC(0-t) / Cmax / half-life / Vd/F: both sexes, human, plasma, oral; for Vd/F: read-out: Vz/F
# Experimental: An open-label, single-sequence drug-drug interaction study was carried out to evaluate the effect of CYP3A4 inhibition by oral itraconazole (200 mg per day) on the pharmacokinetics of a single oral dose of atogepant (60 mg) in healthy subjects.
# This study was a single-center, single-sequence, open-label, 2-period PK drug-interaction study in 40 healthy male and female subjects aged 18 through 45 years.
# Subjects who satisfied the inclusion and exclusion criteria were assigned to a single fixed-treatment sequence in which they received Treatment A followed by Treatment B; there was a 7-day washout period between treatments. • Treatment A: Single oral 60 mg dose of atogepant (tablet) under fasted conditions on Day 1 • Treatment B • Days 8-14: Itraconazole 200 mg (tablet) orally once daily under fed conditions. • Day 15: Itraconazole 200 mg coadministered with atogepant 60 mg (tablet) under fasted conditions. • Days 16 to 17: Itraconazole 200 mg (tablet) once daily under fed conditions.
# Atogepant was administered in the fasted state in this study. Administration of itraconazole with food enhances its bioavailability. Accordingly, to maximize the CYP3A4 inhibition effect, itraconazole was administered with food on all the itraconazole treatment days except day 15. On day 15, both itraconazole and atogepant were administered under fasted state. Fasted state administration of itraconazole on Day 15 was unlikely to affect the CYP3A4 inhibition effect due to the attainment of steady state (of CYP3A4 activity) and long T1/2 of itraconazole (34 to 42 hours) following repeat dose administration.
# [2] = Hepatic impairment study: atogepant plasma protein binding; format: in vitro ADME, human; conditions: human, plasma, oral, 60 mg, 2 hr post dose, read-out: plasma protein binding, percent bound (converted)
# Experimental: (§1) Protein binding blood samples were collected from all participants starting on Day 1 at 0 hour (predose) and at 2 hours post dose. The pre-dose samples collected prior to dosing for each participant were externally spiked with known quantities of atogepant. Percent bound atogepant was determined in the 2-hour sample using direct measurement of the atogepant concentrations in the blood sample.
# [3] = system: plasma protein; assay: as above; format: in vitro ADME, human; conditions: for fraction unbound: human, 0 hr (predose, spiked sample), read-out: plasma protein binding, percent bound (converted); for plasma protein binding, percent bound: 2 hr post dose
# Experimental: as §1
# [4] = Atogepant-quinidine gluconate interaction study: safety; format: in vivo, human; conditions: atogepant 60 mg alone or with quinidine gluconate
# Excerpt: Atogepant PK parameters calculated were peak plasma concentration (Cmax); time to Cmax (tmax); and area under plasma concentration—time curve from time 0 to time t (AUC0-t) and infinity (AUC0-∞). […] Safety assessments included clinical laboratory values, vital signs, electrocardiograms, and […] adverse events (TEAEs).
# [5] = Food effect study: safety and tolerability; format: in vivo, human; conditions: fed and fasted
# Experimental: Plasma samples were collected pre-dose and at predetermined time intervals up to 48 hours after dosing. Atogepant plasma concentrations were determined using a validated LC-MS/MS assay and the pharmacokinetic (PK) parameters were calculated using WinNonlin. A linear mixed-effects model with sequence, study intervention, and period as fixed effects, and participant nested within sequence as a random effect was used to compare the natural logarithm transformed values of atogepant PK parameters AUC0-t, AUC0-inf, and Cmax. Safety was monitored via ECGs, vital signs, clinical labs, and adverse events.
# [6] = molecular target: CYP1A2 (Homo sapiens, UniProt P05177); assay: In vitro CYP inhibition; format: in vitro ADME; conditions: clinically relevant concentrations
# Chain of CYP1A2 (P05177 whole entry): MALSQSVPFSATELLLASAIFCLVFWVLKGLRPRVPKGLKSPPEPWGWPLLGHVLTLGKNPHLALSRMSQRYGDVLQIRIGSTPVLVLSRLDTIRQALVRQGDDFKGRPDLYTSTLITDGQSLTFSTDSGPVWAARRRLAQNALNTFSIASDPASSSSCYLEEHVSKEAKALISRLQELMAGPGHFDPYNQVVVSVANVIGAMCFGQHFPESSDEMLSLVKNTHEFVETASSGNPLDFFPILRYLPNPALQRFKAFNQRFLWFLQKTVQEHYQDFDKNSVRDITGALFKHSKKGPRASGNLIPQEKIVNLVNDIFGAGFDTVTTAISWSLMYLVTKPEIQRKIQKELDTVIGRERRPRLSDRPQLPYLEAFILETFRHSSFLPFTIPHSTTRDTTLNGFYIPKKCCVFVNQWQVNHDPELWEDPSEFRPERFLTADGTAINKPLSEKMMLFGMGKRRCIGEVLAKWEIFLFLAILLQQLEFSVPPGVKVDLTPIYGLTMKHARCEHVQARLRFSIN
# [7] = molecular target: CYP2B6 (Homo sapiens, UniProt P20813); assay: In vitro CYP inhibition; format: in vitro ADME; conditions: clinically relevant concentrations
# Chain of CYP2B6 (P20813 whole entry): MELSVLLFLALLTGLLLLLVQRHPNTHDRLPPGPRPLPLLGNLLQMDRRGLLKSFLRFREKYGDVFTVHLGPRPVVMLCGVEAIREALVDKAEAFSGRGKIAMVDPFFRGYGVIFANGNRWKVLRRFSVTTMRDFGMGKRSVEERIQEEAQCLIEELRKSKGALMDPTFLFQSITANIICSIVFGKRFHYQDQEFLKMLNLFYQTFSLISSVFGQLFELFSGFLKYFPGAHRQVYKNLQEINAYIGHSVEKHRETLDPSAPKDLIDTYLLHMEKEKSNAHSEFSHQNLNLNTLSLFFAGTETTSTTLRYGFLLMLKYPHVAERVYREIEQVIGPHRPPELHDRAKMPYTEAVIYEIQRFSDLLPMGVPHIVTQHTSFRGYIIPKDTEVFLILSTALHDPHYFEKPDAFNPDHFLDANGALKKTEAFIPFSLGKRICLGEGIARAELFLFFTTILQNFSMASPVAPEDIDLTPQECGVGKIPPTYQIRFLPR
# [8] = molecular target: CYP2C8 (Homo sapiens, UniProt P10632); assay: In vitro CYP inhibition; format: in vitro ADME; conditions: clinically relevant concentrations
# [9] = molecular target: CYP2C19 (Homo sapiens, UniProt P33261); assay: In vitro CYP inhibition; format: in vitro ADME; conditions: clinically relevant concentrations
# Chain of CYP2C19 (P33261 whole entry): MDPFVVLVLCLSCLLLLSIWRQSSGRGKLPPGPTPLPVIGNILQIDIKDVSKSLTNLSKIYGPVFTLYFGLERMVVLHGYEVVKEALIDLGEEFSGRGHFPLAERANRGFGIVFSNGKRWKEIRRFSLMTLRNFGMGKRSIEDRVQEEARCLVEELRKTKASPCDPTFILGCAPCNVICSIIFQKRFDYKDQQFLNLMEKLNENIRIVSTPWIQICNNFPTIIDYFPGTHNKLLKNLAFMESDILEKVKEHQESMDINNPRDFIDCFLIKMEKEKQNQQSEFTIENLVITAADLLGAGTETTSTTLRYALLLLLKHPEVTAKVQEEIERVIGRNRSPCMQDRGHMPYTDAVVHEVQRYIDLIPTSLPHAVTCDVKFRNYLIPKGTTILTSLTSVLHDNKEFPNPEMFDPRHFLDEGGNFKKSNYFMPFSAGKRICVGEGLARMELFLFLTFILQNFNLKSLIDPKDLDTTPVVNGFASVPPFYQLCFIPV
# [10] = molecular target: T1, OAT1 (Homo sapiens, UniProt Q4U2R8); assay: Transporter substrate; format: in vitro ADME
# T1 sequence (Q4U2R8 whole entry): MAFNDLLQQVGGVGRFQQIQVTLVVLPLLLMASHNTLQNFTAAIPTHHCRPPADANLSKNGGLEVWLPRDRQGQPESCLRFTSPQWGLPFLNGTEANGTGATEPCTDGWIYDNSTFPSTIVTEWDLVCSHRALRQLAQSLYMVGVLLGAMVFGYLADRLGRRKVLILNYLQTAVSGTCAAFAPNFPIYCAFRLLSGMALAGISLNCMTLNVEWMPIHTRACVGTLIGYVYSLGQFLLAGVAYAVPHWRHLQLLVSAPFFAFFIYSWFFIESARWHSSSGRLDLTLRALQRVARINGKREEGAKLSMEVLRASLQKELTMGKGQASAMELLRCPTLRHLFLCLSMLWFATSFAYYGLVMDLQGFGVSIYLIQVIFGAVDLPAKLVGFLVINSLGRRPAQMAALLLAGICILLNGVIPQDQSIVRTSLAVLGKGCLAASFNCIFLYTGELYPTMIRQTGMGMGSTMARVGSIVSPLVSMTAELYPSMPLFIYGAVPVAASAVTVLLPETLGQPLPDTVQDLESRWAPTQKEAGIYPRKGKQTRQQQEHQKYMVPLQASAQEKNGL
# [11] = molecular target: T1, OAT1; assay: Transporter inhibition; format: in vitro ADME; conditions: clinically relevant concentrations
# [12] = molecular target: BSEP (Homo sapiens, UniProt O95342); assay: Transporter inhibition; format: in vitro ADME; conditions: clinically relevant concentrations
# Chain of BSEP (O95342 whole entry): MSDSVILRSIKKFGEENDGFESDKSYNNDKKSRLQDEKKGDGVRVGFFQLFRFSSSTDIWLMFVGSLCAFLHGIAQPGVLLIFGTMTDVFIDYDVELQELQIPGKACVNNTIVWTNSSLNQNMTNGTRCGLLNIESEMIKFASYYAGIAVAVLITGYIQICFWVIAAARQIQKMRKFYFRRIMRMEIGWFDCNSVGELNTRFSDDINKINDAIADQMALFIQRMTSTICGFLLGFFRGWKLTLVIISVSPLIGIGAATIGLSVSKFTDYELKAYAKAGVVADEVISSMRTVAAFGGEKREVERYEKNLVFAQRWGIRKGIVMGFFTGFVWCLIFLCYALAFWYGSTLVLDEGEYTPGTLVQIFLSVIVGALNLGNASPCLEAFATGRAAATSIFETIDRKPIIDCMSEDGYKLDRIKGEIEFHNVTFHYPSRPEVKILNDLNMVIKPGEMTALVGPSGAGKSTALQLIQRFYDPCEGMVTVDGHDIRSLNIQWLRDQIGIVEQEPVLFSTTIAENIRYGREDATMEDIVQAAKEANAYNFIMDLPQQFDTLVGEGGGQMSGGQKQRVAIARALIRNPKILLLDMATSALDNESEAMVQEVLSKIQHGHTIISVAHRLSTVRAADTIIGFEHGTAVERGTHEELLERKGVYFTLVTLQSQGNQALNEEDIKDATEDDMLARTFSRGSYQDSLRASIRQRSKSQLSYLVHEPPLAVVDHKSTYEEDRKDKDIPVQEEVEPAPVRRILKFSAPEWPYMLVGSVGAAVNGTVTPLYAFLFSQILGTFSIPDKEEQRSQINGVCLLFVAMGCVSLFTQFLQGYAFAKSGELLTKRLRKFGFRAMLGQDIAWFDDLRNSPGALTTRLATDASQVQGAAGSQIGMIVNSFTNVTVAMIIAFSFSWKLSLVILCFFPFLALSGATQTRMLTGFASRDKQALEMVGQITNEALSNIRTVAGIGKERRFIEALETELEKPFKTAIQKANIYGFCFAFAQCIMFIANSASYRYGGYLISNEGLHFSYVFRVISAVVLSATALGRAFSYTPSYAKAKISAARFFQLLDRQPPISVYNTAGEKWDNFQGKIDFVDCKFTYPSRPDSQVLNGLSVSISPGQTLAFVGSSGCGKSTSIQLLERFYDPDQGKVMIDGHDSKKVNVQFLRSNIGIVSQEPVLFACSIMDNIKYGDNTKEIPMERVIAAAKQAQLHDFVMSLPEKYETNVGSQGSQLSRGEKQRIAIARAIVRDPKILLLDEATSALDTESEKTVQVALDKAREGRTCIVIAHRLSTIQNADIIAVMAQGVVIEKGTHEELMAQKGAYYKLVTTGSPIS
# [13] = molecular target: MRP3 (Homo sapiens, UniProt O15438); assay: Transporter inhibition; format: in vitro ADME; conditions: clinically relevant concentrations
# Chain of MRP3 (O15438 whole entry): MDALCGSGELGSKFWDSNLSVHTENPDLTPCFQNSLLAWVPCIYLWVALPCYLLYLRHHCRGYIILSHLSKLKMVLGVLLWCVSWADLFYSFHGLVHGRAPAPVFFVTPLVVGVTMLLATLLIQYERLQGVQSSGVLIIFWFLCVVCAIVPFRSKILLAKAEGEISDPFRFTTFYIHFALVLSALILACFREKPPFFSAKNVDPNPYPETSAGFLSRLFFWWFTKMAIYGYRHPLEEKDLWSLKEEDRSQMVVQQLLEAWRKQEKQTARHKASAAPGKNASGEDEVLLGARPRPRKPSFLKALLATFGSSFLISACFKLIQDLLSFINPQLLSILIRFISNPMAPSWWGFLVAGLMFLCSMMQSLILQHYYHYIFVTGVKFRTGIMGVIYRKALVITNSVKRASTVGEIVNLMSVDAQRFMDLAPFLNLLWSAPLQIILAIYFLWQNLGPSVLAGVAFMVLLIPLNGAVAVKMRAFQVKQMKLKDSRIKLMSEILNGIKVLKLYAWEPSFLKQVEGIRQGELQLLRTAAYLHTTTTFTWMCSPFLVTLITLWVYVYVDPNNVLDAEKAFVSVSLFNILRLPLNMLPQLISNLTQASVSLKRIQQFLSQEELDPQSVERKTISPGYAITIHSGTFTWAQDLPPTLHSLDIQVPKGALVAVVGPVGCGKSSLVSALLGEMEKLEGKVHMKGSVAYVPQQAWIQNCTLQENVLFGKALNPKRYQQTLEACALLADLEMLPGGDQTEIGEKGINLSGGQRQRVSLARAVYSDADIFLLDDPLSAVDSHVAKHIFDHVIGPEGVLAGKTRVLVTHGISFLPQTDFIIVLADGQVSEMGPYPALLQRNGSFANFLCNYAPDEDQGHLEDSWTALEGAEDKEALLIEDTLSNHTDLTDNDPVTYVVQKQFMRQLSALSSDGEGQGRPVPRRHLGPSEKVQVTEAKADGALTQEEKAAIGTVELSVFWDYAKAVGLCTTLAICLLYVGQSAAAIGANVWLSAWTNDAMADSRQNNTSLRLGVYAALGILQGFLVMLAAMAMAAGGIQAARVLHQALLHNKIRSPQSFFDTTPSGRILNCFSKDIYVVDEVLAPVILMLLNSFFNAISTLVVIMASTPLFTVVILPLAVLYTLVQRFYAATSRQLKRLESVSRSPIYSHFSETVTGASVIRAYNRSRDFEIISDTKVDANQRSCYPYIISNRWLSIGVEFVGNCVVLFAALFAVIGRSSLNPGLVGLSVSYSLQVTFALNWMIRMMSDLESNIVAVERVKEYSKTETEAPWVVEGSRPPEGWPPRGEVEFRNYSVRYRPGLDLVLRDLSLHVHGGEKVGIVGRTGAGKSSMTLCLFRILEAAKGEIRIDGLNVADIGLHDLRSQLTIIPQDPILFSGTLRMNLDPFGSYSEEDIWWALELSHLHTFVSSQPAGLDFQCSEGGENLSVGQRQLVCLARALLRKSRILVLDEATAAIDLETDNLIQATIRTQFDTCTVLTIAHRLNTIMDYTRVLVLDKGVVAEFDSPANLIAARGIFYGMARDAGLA
# [14] = Treatment A: atogepant 60 mg single dose alone, fasted
# [15] = Treatment B: atogepant 60 mg + steady state itraconazole 200 mg
# [16] = atogepant + itraconazole vs atogepant alone
# [17] = co-administration with itraconazole (strong CYP3A4 inhibitor), healthy subjects
# [18] = All participants (N = 32), Treatments A, B1, B2
# [19] = Treatment A: atogepant 60 mg alone (N = 32)
# [20] = Treatment B1: atogepant 60 mg + rifampin 600 mg Day 7, rifampin Days 8-11 (N = 31)
# [21] = Treatment B2: atogepant 60 mg + rifampin 600 mg Day 12, rifampin Day 13 (N = 31)
# [22] = after Treatment B1 (atogepant + rifampin)
# [23] = during the study, all treatments
# 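Throughout, for Deaths: safety population of participants given at least one dose, adverse events recorded through clinical assessment across the whole study.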
# 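Throughout, for TEAE leading to treatment discontinuation: safety population of participants given at least one dose, adverse events recorded through clinical assessment across the whole study.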
# 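Throughout, for Treatment-Emergent Serious Adverse Events (TESAE): safety population of participants given at least one dose, adverse events recorded through clinical assessment across the whole study.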
# 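Throughout, for Treatment-emergent adverse events (TEAE): safety population of participants given at least one dose, adverse events recorded through clinical assessment across the whole study.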
smiles,measurement,setting,value
"C[C@@H]1[C@H](c2c(F)ccc(F)c2F)C[C@H](NC(=O)c2cnc3c(c2)C[C@@]2(C3)C(=O)Nc3ncccc32)C(=O)N1CC(F)(F)F [atogepant, (3′S)-N-[(3S,5S,6R)-6-methyl-2-oxo-1-(2,2,2-trifluoroethyl)-5-(2,3,6-trifluorophenyl)piperidin-3-yl]-2′-oxo-1′,2′,5,7-tetrahydrospiro[cyclopenta[b]pyridine-6,3′-pyrrolo[2,3-b]pyridine]-3-carboxamide]",CL/F,[1]; [14],19.2 L/h
same,λz,[1]; [14],0.0825 h⁻¹
same,CL/F,[1]; [15],3.46 L/h
same,λz,[1]; [15],0.0496 h⁻¹
same,AUC0-t GM Ratio Treatment B/Treatment A,[1]; [16],543.26%
same,AUC0-∞ GM Ratio Treatment B/Treatment A,[1]; [16],550.78%
same,Cmax GM Ratio Treatment B/Treatment A,[1]; [16],215.11%
same,Tmax,"[1]; 60 mg, Treatment A: atogepant 60 mg single dose alone, fasted, read-out: Tmax (median)",2 h
same,Tmax,"[1]; atogepant + itraconazole vs atogepant alone, read-out: Tmax difference of medians",1 h
same,AUC(0-inf),[1]; [14],3470 ng·h/mL
same,AUC(0-t),[1]; [14],3440 ng·h/mL
same,Cmax,[1]; [14],740 ng/mL
same,half-life,[1]; [14],11.2 h
same,Vd/F,[1]; [14],292 L
same,AUC(0-inf),[1]; [15],18900 ng·h/mL
same,AUC(0-t),[1]; [15],18500 ng·h/mL
same,Cmax,[1]; [15],1580 ng/mL
same,half-life,[1]; [15],14.9 h
same,Tmax,"[1]; Treatment B: atogepant 60 mg + steady state itraconazole 200 mg, read-out: Tmax (median)",3 h
same,Vd/F,[1]; [15],73.4 L
same,increase in atogepant AUC,[1]; [17],5.5 fold
same,increase in atogepant Cmax,[1]; [17],2.15 fold
same,fraction unbound at 2 h,[2]; mild-impaired,0.026
same,fraction unbound at 2 h,[2]; moderate-impaired,0.029
same,fraction unbound at 2 h,[2]; normal hepatic function,0.018
same,fraction unbound at 2 h,[2]; severe-impaired,0.047
same,fraction unbound,[3]; mild-impaired,0.0297
same,fraction unbound,[3]; moderate-impaired,0.034
same,fraction unbound,[3]; normal hepatic function,0.0211
same,fraction unbound,[3]; severe-impaired,0.0552
same,"plasma protein binding, percent bound",[3]; mild-impaired,97.36 ± 0.70%
same,"plasma protein binding, percent bound",[3]; moderate-impaired,97.05 ± 0.62%
same,"plasma protein binding, percent bound",[3]; normal hepatic function,98.21 ± 0.46%
same,"plasma protein binding, percent bound",[3]; severe-impaired,95.34 ± 0.85%
same,safety and tolerability,[4],safe and well tolerated
same,participants with TEAEs considered related to study intervention,[5]; overall,15%
same,participants with arthralgia,[5]; overall,10.0%
same,participants with back pain,[5]; overall,10.0%
same,participants with treatment emergent AEs (TEAEs),[5]; overall,35.0%
same,safety and tolerability,[5]; single doses of 60-mg IR formulation,safe and well-tolerated
same,inhibition of CYP1A2,[6],not an inhibitor
same,inhibition of CYP2B6,[7],not an inhibitor
same,inhibition of CYP2C8,[8],not an inhibitor
same,inhibition of CYP2C19,[9],not an inhibitor
same,substrate of OAT1,[10],substrate
same,inhibition of OAT1,[11],not an inhibitor
same,inhibition of BSEP,[12],not an inhibitor
same,inhibition of MRP3,[13],not an inhibitor
same,Deaths,[18],0 n (%)
same,TEAE leading to treatment discontinuation,[18],0 n (%)
same,Treatment-Emergent Serious Adverse Events (TESAE),[18],0 n (%)
same,Treatment-emergent adverse events (TEAE),[18],11 (34.4) n (%)
same,Deaths,[19],0 n (%)
same,TEAE leading to treatment discontinuation,[19],0 n (%)
same,Treatment-Emergent Serious Adverse Events (TESAE),[19],0 n (%)
same,Treatment-emergent adverse events (TEAE),[19],0 n (%)
same,Deaths,[20],0 n (%)
same,TEAE leading to treatment discontinuation,[20],0 n (%)
same,Treatment-Emergent Serious Adverse Events (TESAE),[20],0 n (%)
same,Treatment-emergent adverse events (TEAE),[20],8 (25.8) n (%)
same,Deaths,[21],0 n (%)
same,TEAE leading to treatment discontinuation,[21],0 n (%)
same,Treatment-Emergent Serious Adverse Events (TESAE),[21],0 n (%)
same,Treatment-emergent adverse events (TEAE),[21],5 (16.1) n (%)
same,participants with at least one treatment-related TEAE,[22],12.9%
same,participants with headache (most common TEAE),[22],6.5%
same,participants with at least one treatment-related TEAE,after Treatment B2 (atogepant + rifampin),6.5%
same,"changes in clinical laboratory test results, vital signs, ECG findings",atogepant alone or with rifampin,no notable changes from baseline
same,tolerability,"atogepant and rifampin, healthy participants",well tolerated
same,participants with at least one treatment-related TEAE,[23],15.6%
same,participants with mild TEAEs,[23],31.3%
same,participants with moderate TEAEs,"during the study, after Treatment B1",3.1%
same,participants with treatment-related nausea,"during the study, one after B1, one after B2",6.3%

# Source: US12350259B2, “Methods of treating migraine” (Allergan Pharmaceuticals International Limited, priority 2021, dated 2025)
